Data reported in patent US9358232B2, “Methods for treating cancer using TOR kinase inhibitor combination therapy” (Signal Pharmaceuticals, LLC, priority 2013, dated 2016).
Entries after “also recorded” stand apart in the source; their conditions may differ.

How the values were obtained:
[1] = system: WSU-DLCL2 xenograft; assay: DLBCL xenograft model; format: in vivo, SCID mice; conditions: for tumor volume reduction (TVR): Day 35, end of 3-week dosing, vs vehicle control (FIG. 1); for decrease in tumor volume (TVR): Day 34, vs vehicle, Compound 1 10 mg/kg QD, Compound A 30 mg/kg QD, alone or combined (FIGS. 2-3)
Method: Severe combined immunodeficiency (SCID) mice were implanted with human DLBCL cell line (WSU-DLCL2) into the flank. Treatment of compounds started between Day 11 and Day 14 after cell inoculation. Randomized groups of mice (n=9 to 10/group) were treated with the single agents (Compound 1, Compound A or Compound AA) or the combination of Compound 1/Compound A, Compound A/Compound AA, or Compound 1/Compound AA. Compounds were administered orally on a once daily (Compound 1 and Compound A) or twice daily […] schedule for 21 days. The positive control consisted of CHOP therapy (combination of cyclophosphamide, doxorubicin, vincristine and prednisone). Compound 1 and Compound A were formulated in CMC-Tween (carboxymethylcellulose/Tween 80/deionized water). Compound AA was suspended in DSP (dimethylsulphoxide/solutol/phosphate buffered saline).
Initial studies were conducted in order to determine the antitumor activity of Compound 1 and to identify a dose level for the combination studies. In the WSU-DLCL2 xenograft model, Compound 1 inhibited tumor growth in a dose-dependent fashion. […] In a subsequent combination study, Compound 1 was dosed at 10 mg/kg, once daily (QD). Compound A and Compound AA were dosed at 30 mg/kg (QD) and 50 mg/kg (BID), respectively.

[2] = system: B-cell; conditions: cited from earlier work
[3] = target: BTK (Homo sapiens, UniProt Q06187); conditions: enzymatic and cellular assays; cited from earlier work
[4] = combination study, Compound AA 50 mg/kg BID
[5] = combination study, single agents or in combination

BTK, sequence (Q06187 whole entry): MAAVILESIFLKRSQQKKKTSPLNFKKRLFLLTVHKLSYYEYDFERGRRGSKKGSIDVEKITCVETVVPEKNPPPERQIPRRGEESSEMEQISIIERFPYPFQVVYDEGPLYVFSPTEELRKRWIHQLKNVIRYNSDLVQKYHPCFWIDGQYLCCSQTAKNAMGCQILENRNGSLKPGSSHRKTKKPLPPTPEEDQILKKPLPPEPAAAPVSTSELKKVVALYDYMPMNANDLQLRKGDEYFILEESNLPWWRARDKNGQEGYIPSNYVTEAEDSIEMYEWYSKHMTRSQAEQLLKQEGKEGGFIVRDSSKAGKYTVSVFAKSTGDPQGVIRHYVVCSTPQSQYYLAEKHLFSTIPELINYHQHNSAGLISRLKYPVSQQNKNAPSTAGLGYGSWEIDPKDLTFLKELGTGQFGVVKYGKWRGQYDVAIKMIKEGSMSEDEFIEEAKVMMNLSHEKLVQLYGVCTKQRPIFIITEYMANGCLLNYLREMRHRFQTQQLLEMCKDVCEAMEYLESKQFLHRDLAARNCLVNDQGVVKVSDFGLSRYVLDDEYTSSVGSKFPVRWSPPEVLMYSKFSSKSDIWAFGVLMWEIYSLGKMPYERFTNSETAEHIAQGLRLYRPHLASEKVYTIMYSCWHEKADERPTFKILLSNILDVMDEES

| SMILES | tumor volume reduction (TVR) ([1]; 1 mg/kg oral once daily) [%] | tumor volume reduction (TVR) ([1]; 3 mg/kg oral once daily) [%] | decrease in tumor volume (TVR) [1, 4] [%] | body weight loss [1, 5] | body weight loss ([1]; initial dose study, 1, 3 and 10 mg/kg (FIG. 1)) | effect on B-cell proliferation and activation [2] | antitumor activity as single agent [1, 4] | inhibition of BTK [3] |
| --- | --- | --- | --- | --- | --- | --- | --- | --- |
| CO[C@H]1CC[C@H](N2C(=O)CNc3ncc(-c4ccc(C(C)(C)O)nc4)nc32)CC1 [Compound 1, 7-(6-(2-hydroxypropan-2-yl)pyridin-3-yl)-1-((1r,4r)-4-methoxycyclohexyl)-3,4-dihydropyrazino-[2,3-b]pyrazin-2(1H)-one] | ~22 | ~28 | 29 | No significant body weight loss | No significant body weight loss |  |  |  |
| Cc1nc2cccc(N)c2c(=O)n1C1CCC(=O)NC1=O (centres unmarked) [Compound A, 3-(5-Amino-2-methyl-4-oxoquinazolin-3(4H)-yl)-piperidine-2,6-dione] |  |  | 30 | No significant body weight loss |  |  |  |  |
| C=CC(=O)Nc1cccc(Nc2nc(Nc3ccc(OCCOC)cc3)ncc2F)c1 [Compound AA, N-(3-(5-fluoro-2-(4-(2-methoxyethoxy)phenylamino)pyrimidin-4-ylamino)phenyl)acrylamide] |  |  |  | No significant body weight loss |  | inhibit B-cell proliferation and activation | No significant antitumor activity; also recorded: inactive | covalent, irreversible inhibition of BTK |
